Article PMC10118748 (Science translational medicine, 2022)

Columns and labels:
PC3 tumors [1] = conditions: cohort 2, ATC + durvalumab, 1 or 0.1 nmol/dose
PC3 tumors [2] = conditions: 14 days after treatment, 1 nmol + ATC (fig. S10)
murine PD-L1 = conditions: ref [47]; cited from earlier work
[3] = ref [58]; cited from earlier work
cynomolgus PD-L1 = conditions: flow staining of SDGF-PDL1B1G1-expressing cells
[4] = 10 mM DTT vs PBS

In the case of durvalumab, the tumor growth suppression (PC3 tumors [1]) is listed as “No tumor growth suppression”, the “ATC infiltration and activation in tumor (human CD8, granzyme B)” value (PC3 tumors [2]) is listed as “recruitment of trace numbers of ATCs infiltrating the tumor” and the murine cross-reactivity (murine PD-L1) is listed as “non-murine-cross-reactive”.
For atezolizumab, the linked adverse effect [3] is listed as “Type 1 diabetes has been reported”.
For CC[C@H](C)[C@@H]1NC(=O)[C@H](CCCNC(=N)N)NC(=O)[C@H](CCC(=O)O)NC(=O)[C@H](C)NC(=O)[C@@H]2CSSC[C@H](NC(=O)[C@H](Cc3c[nH]cn3)NC(=O)[C@H](C)NC(=O)[C@H](CCCNC(=N)N)NC(=O)CNC(=O)[C@H]([C@@H](C)CC)NC(=O)[C@H]([C@@H](C)O)NC(=O)[C@H](Cc3ccc(O)cc3)NC(=O)[C@H](CO)NC(=O)[C@H](CCCCN)NC1=O)C(=O)N[C@@H](CO)C(=O)NCC(=O)N[C@@H](CCC(N)=O)C(=O)N[C@@H](Cc1ccc(O)cc1)C(=O)N[C@@H](Cc1ccccc1)C(=O)N[C@@H](CC(=O)O)C(=O)N[C@@H](C(C)C)C(=O)N[C@@H](Cc1c[nH]c3ccccc13)C(=O)N[C@@H](CCCCN)C(=O)N[C@H]1CSSC[C@H](NC(=O)[C@H](Cc3c[nH]cn3)NC(=O)[C@H](C(C)C)NC(=O)[C@H](CCCCN)NC(=O)[C@@H](NC(=O)[C@H](CC(=O)O)NC(=O)[C@H](CCC(=O)O)NC(=O)[C@H](CCC(=O)O)NC(=O)[C@H](CO)NC(=O)CN)CSSC[C@@H](C(=O)N[C@@H](C)C(=O)N[C@@H](C)C(=O)N3CCC[C@H]3C(=O)O)NC(=O)[C@H](Cc3c[nH]cn3)NC(=O)[C@H](CC(=O)O)NC(=O)[C@H](CC(C)C)NC1=O)C(=O)N[C@@H](C(C)C)C(=O)N[C@@H](CCCCN)C(=O)N[C@@H](CCC(=O)O)C(=O)N[C@@H](Cc1c[nH]c3ccccc13)C(=O)N[C@@H](C)C(=O)N[C@@H](C)C(=O)N[C@@H](Cc1ccc(O)cc1)C(=O)N[C@@H](CCCCN)C(=O)N[C@@H](C)C(=O)N2 [PDL1B1G1], the “binding to cynomolgus PD-L1 relative to murine PD-L1” value (cynomolgus PD-L1) was “stronger than seen with murine PD-L1” and the “RP-HPLC mobility shift upon reduction” value [4] was “substantial mobility shift”.
